According to patent publication EP2307018B1, “OXYMATRINE COMPOSITIONS AND USE THEREOF FOR TREATING AND PREVENTING CHRONIC INFECTIOUS DISEASES” (Chia, John K.S., priority 2008, dated 2010):

Columns and labels:
hepatitis B virus = details: cited from earlier work
[1] = system: varicella-zoster virus (VZV); assay: case report Example 9, chronic recurrent varicella-zoster virus infection (shingles); type: in vivo, human; details: 200 mg bid
Protocol: A person developed recurrent shingles after multiple episodes of sinus infections and sinus surgeries. They also had chronic indigestion and nausea. Fatigue became so severe that they were bedridden for several years.
Coxsackievirus B4 antibody was 1:320. […] The patient was started on oxymatrine 200 mg bid.

[2] = case report Example 11, treating diarrhea; type: in vivo, human; details: after starting 200 mg bid
Text: A person developed continuing watery diarrhea, as many as twenty episodes a day, and mild fatigue for three months. Laboratory studies and stool work-up were completely negative. […] They failed Asacol therapy.

enterovirus [3] = assay: case report Example 5, treatment of chronic fatigue; type: in vivo, human
Protocol: A person developed debilitating fatigue, sore throat, oral ulcers, vertigo, headaches and cognitive dysfunction two months after having a flu-like illness. […] Approximately four years later, the patient started taking oxymatrine. After an initial increase of gastrointestinal symptoms for the first two weeks, the patient tolerated 500 mg per day of oxymatrine.
The symptoms continued for two weeks and resolved after stopping oxymatrine. […] They continued to improve for 12 months after taking the medication.

enterovirus [4] = assay: open-label, controlled oxymatrine clinical study in ME/CFS patients with enterovirus infection; type: in vivo, human
Protocol: An open-label, controlled study was conducted on patients who fulfilled the international criteria for myalgic encephalomyelitis (ME)/chronic fatigue syndrome (CFS) and had virological evidence of enterovirus infection.
One hundred patients took oxymatrine at dose of 200-300 mg twice a day with or without food for a minimum of three months. Patients who could not complete the course due to side effects or intolerance were considered as failures (intent-to-treat analysis). Of the first group, 52% (52/100) responded to oxymatrine, as compared to 6% (7/114) of the control groups (p <0.000001, X^2 test). Of the next 104 patients, 52% responded to treatment. […] Fifty-three percent (57/107) of patients with elevated […] (CVB) and echovirus (Ech) antibody responded to therapy and 50% (49/97) of patients with non-typeable EV infections improved (NS, X^2 test). Fifty-two percent (47/91) of patients with positive EV protein in stomach biopsies responded, whereas 56% (5/9) of patients with negative biopsies responded (NS, X^2 test).

[5] = system: Coxsackie B virus (CBV) 3, CVB4 and echovirus 9; assay: case report Example 2, treatment of chronic fatigue; type: in vivo, human
Protocol: A person with episodes of diarrhea while traveling to Tonga developed severe respiratory infection soon thereafter. The symptoms consisted of fevers to 105°F, night sweats, diffuse myalgia, tachycardia, fatigue, sinus congestion and cough, and unresponsiveness to antibiotics. The patient developed profound fatigue thereafter and went on total disability three months after the onset of symptoms. Initial Coxsackie B virus (CBV) 3, CVB4 and echovirus 9 antibody titers were 1:320, 1:160, 1:80 (normal <1:10), respectively.
The patient could not work for the next 18 months. They were started on oxymatrine at 300 mg twice a day (bid). After taking oxymatrine for two months, they were able to take short walks, but still exhausted after one hour of activity requiring five hour naps. At the end of three months of therapy, they started having fevers of 104-105°F for several days with marked decrease in diffuse myalgia. […] CVB3, CVB4 and echovirus antibody three months after therapy were 1:160, 1:160 and 1:20, respectively.

enterovirus [6] = assay: case report Example 12, treating diarrhea; type: in vivo, human
Text: A person developed severe watery diarrhea for two months. Stool evaluation was unremarkable. […] They continued to do well for six months on the medication.

[7] = system: interleukin-12P35+P40/interleukin-10; assay: cytokine gene expression in CFS patients at start of and during oxymatrine therapy (FIG. 5); type: in vivo, human
Text: • FIG. 1 graphically illustrates the comparison of Th1/Th2 (interleukin-12p35+P40/interleukin-4 + interleukin-10, RQ is the gene expression ratio) gene expression of patients who are functional (able to work) versus totally disability (not able to work). The difference therein is statistically significant (p<0.01, pair t test). • FIG. 2 illustrates the infected human stomach (biopsy of case 5 stained with 5D8/1) before treatment with oxymatrine. • FIG. 3 illustrates the stomach biopsy of case 5 stained with 5 D8/1 after taking oxymatrine for 6 months. • FIG. 4 graphically illustrates a cytokine gene expression study before and after oxymatrine (RQ is the gene expression ratio). • FIG. 5 graphically illustrates cytokine gene expression of interleukin-12P35+P40/interleukin-10 in tissue from CFS patients at the start of (pre-oxymatrine) and during oxymatrine therapy (n=17).

enterovirus protein = assay: immunoperoxidase staining of stomach biopsy before and after oxymatrine; type: in vivo, human; details: one patient (case 5), after taking oxymatrine for 6 months, correlated with symptomatic improvement
Text: FIG. 2 illustrates immunoperoxidase staining for enterovirus protein in a stomach biopsy before oxymatrine therapy for one patient. […] The decrease in viral protein correlated with significant symptomatic improvement.

[8] = compared to placebo-treated animals
[9] = side effects in 176 patients having taken oxymatrine

## O=C1CCC[C@@H]2[C@H]3CCC[N+]4([O-])CCC[C@@H](CN12)[C@@H]34 (some centres unmarked) [oxymatrine]
Hepatitis B virus; [8]
  level of gamma interferon: increased more than three-fold
  level of interleukin-2: increased more than three-fold
  level of interleukin-4: decreased more than three-fold
  level of interleukin-10: decreased more than three-fold
Hepatitis B virus; mouse, in vivo
  effect on the hepatitis B viremia, mRNA and protein levels: No effect
[1]
  outbreaks of shingles: less often and not as severe
[1]; three months, previously bedridden
  clinical outcome: went back to full-time work
[2]
  diarrhea: resolved completely in a few days
Enterovirus [3]; three months after stopping oxymatrine
  clinical outcome: only had mild symptoms and was able to return to part-time work and regular exercise
Enterovirus [3]; two months after taking the medication, 500 mg per day, continued two weeks, resolved after stopping
  adverse symptoms: severe diffuse ulcerations of the mouth mucosa, increasing headache, sinus congestion and severe myalgia
Enterovirus [4]; compared to baseline values
  changes of other chemistry parameters and complete blood counts (CBC): no significant changes
Enterovirus [4]; eighty-seven percent
  patients who relapsed responded to restart of oxymatrine: 13/15
Enterovirus [4]; first group (52/100), 200-300 mg twice a day, minimum three months, intent-to-treat, control groups 6% (7/114), p <0.000001
  patients responded to oxymatrine: 52%
Enterovirus [4]; human, in vivo
  patients reporting transient, moderate increase in pre-existing symptoms: more than 50%
  patients with elevated blood pressure that prompted discontinuation of therapy: 2/204
  serious complications during therapy: No serious complications
Enterovirus [4]; most of the patients, except for variable increase of pre-existing symptoms during the first 1-2 days of maximal doses
  tolerability: tolerated oxymatrine well
Enterovirus [4]; next 104 patients
  patients responded to treatment: 52%
Enterovirus [4]; patients with elevated chrysanthemum virus B (CVB) and echovirus (Ech) antibody, fifty-three percent
  patients responded to therapy: 57/107
Enterovirus [4]; patients with negative biopsies (5/9)
  patients responded: 56%
Enterovirus [4]; patients with non-typeable EV infections (49/97)
  patients improved: 50%
Enterovirus [4]; patients with positive EV protein in stomach biopsies, fifty-two percent
  patients responded: 47/91
Enterovirus [4]; returned to normal without specific treatment
  patients with transient increase in potassium: 2/204
Enterovirus [4]; [9]
  Diffuse rashes: % of total patients: < 1%
  Dry eyes and mouth: % of total patients: 1%
  Fevers: % of total patients: 2%
  Herpes simplex virus outbreak after discontinuation: % of total patients: 1%
  Increase in blood pressure: % of total patients: 1%
  Increase in edema: % of total patients: 1%
  Increased abdominal pain: % of total patients: 6%
  Increased bladder symptoms: % of total patients: 2%
  Increased diarrhea: % of total patients: 4%
  Increased dizziness: % of total patients: 2%
  Increased fatigue: % of total patients: 4%
  Increased headache: % of total patients: 8%
  Increased insomnia: % of total patients: 1%
  Increased myalgia: % of total patients: 30%
  Increased nausea: % of total patients: 6%
  Increased palpitation, chest pain: % of total patients: 3%
  Increased polyarthralgia: % of total patients: 1%
  Increased sinus congestion: % of total patients: 3%
  Inflammation of skin lesion: % of total patients: 1%
  New rashes: % of total patients: < 1%
  Seizure (petit mal): % of total patients: < 1%
  Weight gain: % of total patients: 1%
Enterovirus [4]; within the first eight weeks, twenty patients
  patients who stopped oxymatrine due to intolerable side effects: 10%
Enterovirus [4]; within two days to one month after discontinuation, fifty-nine percent
  patients relapsed after discontinuation of oxymatrine: 19/32
[5]; 300 mg bid for three months, three months after finishing the medication, previously on total disability
  clinical outcome: went back to full-time work
[5]; at the end of three months of therapy, for several days, with marked decrease in diffuse myalgia
  fevers: 104-105 °F
[5]; during therapy, calcium resolved after stopping hydrochlorothiazide
  laboratory studies including CBC and complete chemistry panel: normal except mildly elevated calcium levels
[5]; in vivo
  relapse after therapy: had not relapsed for at least one year after therapy
Enterovirus [6]; after starting oxymatrine
  diarrhea: resolved within one week
Enterovirus [6]; resolved after increasing the dosage
  effect of decrease of medication to half the dose: relapse of the symptoms
[7]; seven responders of n=17, pre-oxymatrine vs during therapy
  increase of the interleukin-12P35+P40/interleukin-10 ratio (gene expression): greater than 2 fold
[7]; ten non-responders of n=17, pre-oxymatrine vs during therapy
  interleukin-12P35+P40/interleukin-10 ratio (gene expression): remained the same or decreased
Enterovirus protein
  viral protein by staining with enterovirus-specific monoclonal antibody (5 D8/1): significant reduction
